Reference: patent publication US7612064B2, “Sulfopyrroles” (Takeda Pharmaceutical Company Limited, priority 2003, dated 2009)

Columns and labels:
Jurkat = assay: MTS proliferation assay; type: cell-based, human; conditions: 72 h
Summary of the method: (§1)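 Cells were exposed for 72 h under culture conditions to test compounds at final concentrations of 10, 3, 1 and 0.3 μM, added in complete medium with at most 5% DMSO. MTS reagent was then added for a further 3 h, and absorbance was read at 492 nm.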

HeLa = assay: MTS proliferation assay; type: cell-based, human; conditions: 72 h
Summary of the method: as §1

[1] = Hoechst 33342 nuclear staining; type: cell-based; conditions: for Hoechst 33342 nuclear staining score, H460: H460 cells; for Hoechst 33342 nuclear staining score, HeLa: HeLa cells; for Hoechst 33342 nuclear staining score, Jily: Jily cells; for Hoechst 33342 nuclear staining score, Jurkat: Jurkat cells; for Hoechst 33342 nuclear staining score, MRC5: MRC5 cells;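 as to all read-outs here: apoptotic nuclei scored 0 none 1 weak under 50% of cells 2 strong over 50% of cells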
Summary of the method: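 After a further 30 min incubation, plates were inspected on a standard inverted fluorescence microscope. The fraction of apoptotic nuclei and other apoptosis-specific morphology were scored as 0 for no activity, 1 for weak activity in less than 50% of the cells, and 2 for strong activity in more than 50% of the cells.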

MRC5 = assay: MTS proliferation assay; type: cell-based; conditions: MRC5, 72 h
Summary of the method: as §1

Jily = assay: MTS proliferation assay; type: cell-based; conditions: 72 h
Summary of the method: as §1

Row | SMILES | IC50 (Jurkat) | IC50 (HeLa) | Hoechst 33342 nuclear staining score, H460 ([1]; conc 0.1) | Hoechst 33342 nuclear staining score, H460 ([1]; conc 0.3) | Hoechst 33342 nuclear staining score, H460 ([1]; conc 1) | Hoechst 33342 nuclear staining score, H460 ([1]; conc 3) | Hoechst 33342 nuclear staining score, HeLa ([1]; conc 0.1) | Hoechst 33342 nuclear staining score, HeLa ([1]; conc 0.3) | Hoechst 33342 nuclear staining score, HeLa ([1]; conc 1) | Hoechst 33342 nuclear staining score, HeLa ([1]; conc 3) | Hoechst 33342 nuclear staining score, Jily ([1]; conc 0.1) | Hoechst 33342 nuclear staining score, Jurkat ([1]; conc 0.1) | Hoechst 33342 nuclear staining score, Jurkat ([1]; conc 0.3) | Hoechst 33342 nuclear staining score, Jurkat ([1]; conc 1) | Hoechst 33342 nuclear staining score, Jurkat ([1]; conc 3) | Hoechst 33342 nuclear staining score, PBLs ([1]; conc 0.1) | Hoechst 33342 nuclear staining score, PBLs ([1]; conc 0.3) | Hoechst 33342 nuclear staining score, PBLs ([1]; conc 1) | Hoechst 33342 nuclear staining score, PBLs ([1]; conc 3) | IC50 (Jily) | also measured
1 | COc1ccc(S(=O)(=O)n2cc(CNc3ccc(N4CCOCC4)cc3)cc2-c2c(OC)cc(OC)cc2OC)cc1 [Example 99] | < 1000 nM | < 1000 nM | 0 | 0 | 2 (strong activity comprising more than 50% of the cells) | 2 (strong activity comprising more than 50% of the cells) | 0 | 0 | 2 (strong activity comprising more than 50% of the cells) | 2 (strong activity comprising more than 50% of the cells) | 0 | 0 | 0 | 2 (strong activity comprising more than 50% of the cells) | 2 (strong activity comprising more than 50% of the cells) | 0 | 0 | 0 | 0 | < 1000 nM | Hoechst 33342 nuclear staining score, Jily ([1]; conc 0.3): 0; Hoechst 33342 nuclear staining score, Jily ([1]; conc 1): 2 (strong activity comprising more than 50% of the cells); Hoechst 33342 nuclear staining score, Jily ([1]; conc 3): 2 (strong activity comprising more than 50% of the cells); Hoechst 33342 nuclear staining score, MRC5 ([1]; conc 0.1): 0; Hoechst 33342 nuclear staining score, MRC5 ([1]; conc 0.3): 0; Hoechst 33342 nuclear staining score, MRC5 ([1]; conc 1): 1 (weak activity comprising less than 50% of the cells); Hoechst 33342 nuclear staining score, MRC5 ([1]; conc 3): 1 (weak activity comprising less than 50% of the cells); IC50 (MRC5): > 1000 nM
2 | COc1cc(-c2cc(-c3cccnc3)cn2S(=O)(=O)c2ccc([N+](=O)[O-])cc2)cc(OC)c1OC [Example 92] | > 1000 nM | > 1000 nM | 0 | 0 | 0 | 1 (weak activity comprising less than 50% of the cells) | 0 | 0 | 0 | 0 | 0 | 0 | 0 | 0 | 2 (strong activity comprising more than 50% of the cells) | 0 | 0 | 0 | 0 | > 1000 nM | Hoechst 33342 nuclear staining score, Jily ([1]; conc 0.3): 0; Hoechst 33342 nuclear staining score, Jily ([1]; conc 1): 0; Hoechst 33342 nuclear staining score, Jily ([1]; conc 3): 2 (strong activity comprising more than 50% of the cells); Hoechst 33342 nuclear staining score, MRC5 ([1]; conc 0.1): 0; Hoechst 33342 nuclear staining score, MRC5 ([1]; conc 0.3): 0; Hoechst 33342 nuclear staining score, MRC5 ([1]; conc 1): 0; Hoechst 33342 nuclear staining score, MRC5 ([1]; conc 3): 0; IC50 (MRC5): > 1000 nM
3 | COc1cc(-c2cc(-c3ccc(S(N)(=O)=O)cc3)cn2S(=O)(=O)c2ccc(C)cc2)cc(OC)c1OC [Example 57] | < 200 nM | < 1000 nM | – | – | – | – | 0 | 0 | 0 | 2 (strong activity comprising more than 50% of the cells) | – | 0 | 0 | 1 (weak activity comprising less than 50% of the cells) | 2 (strong activity comprising more than 50% of the cells) | 0 | 0 | 0 | 0 | < 1000 nM | IC50 (MRC5): < 1000 nM
4 | COc1ccc(S(=O)(=O)n2cc(-c3cncc(C(N)=O)c3)cc2-c2cc(OC)c(OC)c(OC)c2)cc1 [Example 104, 4-(3-Aminocarbonylpyrid-5-yl)-1-p-methoxyphenylsulfonyl-2-(3,4,5-trimethoxyphenyl)-pyrrole] | – | – | 0 | 2 (strong activity comprising more than 50% of the cells) | 2 (strong activity comprising more than 50% of the cells) | 2 (strong activity comprising more than 50% of the cells) | 0 | 2 (strong activity comprising more than 50% of the cells) | 2 (strong activity comprising more than 50% of the cells) | 2 (strong activity comprising more than 50% of the cells) | 0 | 0 | 2 (strong activity comprising more than 50% of the cells) | 2 (strong activity comprising more than 50% of the cells) | 2 (strong activity comprising more than 50% of the cells) | 0 | 0 | 0 | 0 | < 200 nM | IC50 (Jurkat; Homo sapiens): < 200 nM; IC50 (HeLa; Homo sapiens): < 1000 nM; Hoechst 33342 nuclear staining score, Jily ([1]; conc 0.3): 2 (strong activity comprising more than 50% of the cells); Hoechst 33342 nuclear staining score, Jily ([1]; conc 1): 2 (strong activity comprising more than 50% of the cells); Hoechst 33342 nuclear staining score, Jily ([1]; conc 3): 2 (strong activity comprising more than 50% of the cells); Hoechst 33342 nuclear staining score, MRC5 ([1]; conc 0.1): 0; Hoechst 33342 nuclear staining score, MRC5 ([1]; conc 0.3): 1 (weak activity comprising less than 50% of the cells); Hoechst 33342 nuclear staining score, MRC5 ([1]; conc 1): 2 (strong activity comprising more than 50% of the cells); Hoechst 33342 nuclear staining score, MRC5 ([1]; conc 3): 2 (strong activity comprising more than 50% of the cells); IC50 (MRC5; Homo sapiens): < 200 nM
5 | COc1cc(-c2cc(-c3cccnc3)cn2S(=O)(=O)/C=C/c2ccccc2)cc(OC)c1OC [Example 89] | > 1000 nM | > 1000 nM | 0 | 0 | 0 | 0 | 0 | 0 | 0 | 0 | 0 | 0 | 0 | 0 | 1 (weak activity comprising less than 50% of the cells) | 0 | 0 | 0 | 0 | > 1000 nM | Hoechst 33342 nuclear staining score, Jily ([1]; conc 0.3): 0; Hoechst 33342 nuclear staining score, Jily ([1]; conc 1): 0; Hoechst 33342 nuclear staining score, Jily ([1]; conc 3): 1 (weak activity comprising less than 50% of the cells); Hoechst 33342 nuclear staining score, MRC5 ([1]; conc 0.1): 0; Hoechst 33342 nuclear staining score, MRC5 ([1]; conc 0.3): 0; Hoechst 33342 nuclear staining score, MRC5 ([1]; conc 1): 0; Hoechst 33342 nuclear staining score, MRC5 ([1]; conc 3): 0; IC50 (MRC5): > 1000 nM
